We go through two compounds from patent US20050171169A1, “Combination chemotherapy for helminth infections” (priority 2004, published 2005).

A word on the solubility: it is the dissolved amount per volume that the medium holds.

In data set [1] the test system is E. multilocularis metacestodes. Kind of data set: Secondary infection with E. multilocularis metacestodes, chemotherapy starting at two months post infection (Example 2). In kind it is in vivo, Echinococcus multilocularis. The conditions noted are these: Balb/c mice; treatment initiated 2 months p.i., daily for 35 days; vs CMC control (4.3±0.9 g). On the procedure:
E. multilocularis metacestodes (isolate IM280) were maintained by serial transplantation passages through intraperitoneal (i.p.) injection in gerbils (Meriones unguiculatus). Animals were sacrificed at four to ten weeks p.i, and the parasite material was removed from the peritoneal cavity under aseptic conditions, placed into Hanks balanced salt solution (HBSS), and washed several times. Vesicle suspensions were prepared as described in Hemphill, A., and B. Gottstein. 1995. Immunology and morphology studies on the proliferation of in vitro cultivated Echinococcus multilocularis metacestodes. Parasitol. Res. 81: 605-614. Vesicles were washed once in HBSS, and the number of intact metacestodes in 50 ml HBSS was determined microscopically. […]
(§1) For assessments of secondary infections, parasite tissue was carefully removed from the peritoneal cavity, and the parasite weight was determined as described in: Dai, W. J., and B. Gottstein. […]
(§2) For serological and lymphocyte proliferation assays, blood was taken from euthanized mice by heart puncture, and total IgG-, as well as IgG1- and IgG2a-isotype levels against crude E. multilocularis extract (Faub-antigen) and vesicle fluid antigen, were determined according to: Dai, W. J., A. Hemphill, A. Waldvogel, K. Ingold, P. Deplazes, H. Mossmann, and B. Gottstein. […]

In data set [2] the test system is E. multilocularis eggs. Kind of data set: Primary infection with E. multilocularis eggs, chemotherapy starting at two months post infection (Example 3). It is filed as in vivo, Echinococcus multilocularis. The conditions noted are these: Balb/c mice, 2000 eggs intragastric; NTZ from 2 months p.i., daily for 35 days; infection control 5 lesions/mouse.
Excerpt: Infective E. multilocularis eggs were isolated from fox intestinal tissue as described (Pater, C., V. Muller, S. Harraga, M. Liance, V. Godot, J. P. Carbillet, D. Meillet, T. Romig, and D. A. Vuitton. 1998). Intestinal and systemic humoral immunological events in the susceptible Balb/C mouse strain after oral administration of Echinococcus multilocularis eggs. Parasite Immunol. 20: 623-9). The infectivity of this batch of eggs was pre-determined by titration-infection experiments in mice, and an infection dose of 2000 eggs was used.
Six week old Balb/c mice were housed in a temperature-controlled light-cycle room with food and water ad libitum. The mice were separated into experimental groups of 10 animals each. […]
For analysis of primary infection, the entire liver was removed, and lesion numbers were determined as described: Siles-Lucas, M., M. Merli, U. Mackenstedt and B. Gottstein 2003. […]
as §2

The subject of data set [3] is E. multilocularis metacestodes. The data set is described as follows: Secondary infection with E. multilocularis metacestodes, chemotherapy starting at the timepoint of infection (Example 1). To be noted: Balb/c mice, i.p. 20 metacestodes; daily intragastric treatment from day of infection for 35 days; necropsy day 36; CMC group 0.23±0.05 g. In kind it is in vivo, Echinococcus multilocularis. Here is the method:
E. multilocularis metacestodes (isolate IM280) were maintained by serial transplantation passages through intraperitoneal (i.p.) injection in gerbils (Meriones unguiculatus). Animals were sacrificed at four to ten weeks p.i, and the parasite material was removed from the peritoneal cavity under aseptic conditions, placed into Hanks balanced salt solution (HBSS), and washed several times. Vesicle suspensions were prepared as described in Hemphill, A., and B. Gottstein. 1995. Immunology and morphology studies on the proliferation of in vitro cultivated Echinococcus multilocularis metacestodes. Parasitol. Res. 81: 605-614. Vesicles were washed once in HBSS, and the number of intact metacestodes in 50 ml HBSS was determined microscopically. The metacestode suspension was adjusted to 20 intact vesicles/[…], and was used for infection experiments immediately.
Six week old Balb/c mice were housed in a temperature-controlled light-cycle room with food and water ad libitum. The mice were separated into experimental groups of 10 animals each. Drug suspensions (30 mg/ml NTZ, 10 mg/ml ABZ, and 30 mg NTZ plus 10 mg ABZ/ml, respectively) were prepared in carboxymethylcellulose (CMC) 0.5% (w/v) in water. […]
as §1

The nature of data set [4]: Solubility of NTZ in solvents. It is filed as physicochemical.
Data set [5] in a line: Oral absorption of NTZ (general statement).
For data set [6], the system named is E. multilocularis metacestode tissue. Kind of data set: Histology and transmission electron microscopy of metacestode tissue from treated mice (Example 5). In kind it is in vivo, Echinococcus multilocularis. To be noted: for Ultrastructural alterations of metacestode tissue (TEM): tissue from treated infected mice vs CMC-control; for Histology of metacestode tissue: tissue from treated infected mice vs control. Here is the method:
For histological and transmission electron microscopy (TEM) analysis, tissue samples were fixed in 3% paraformaldehyde/1% glutaraldehyde in 100 mM sodium cacodylate buffer (pH 7.2) for 24 h at 4° C., and postfixed in 2% OsO4 in cacodylate buffer for 4 h at room temperature. The samples were then processed and embedded in Epon 812 epoxy resin as described previously in: Hemphill, A., and S. L. Croft. 1997. Electron microscopy in Parasitology. In: p. 227-268. M. Rogan (ed), Analytical Parasitology, Springer Verlag, Heidelberg. Sections of […] in thickness were used for histological examination, and ultrathin sections 80-100 nm for transmission electron microscopy. Sections were loaded onto 300-mesh copper grids, and were contrasted with uranyl acetate and lead citrate as described previously in: Hemphill, A., and S. L. Croft. 1997. Electron microscopy in Parasitology. In: p. 227-268. M. Rogan (ed), Analytical Parasitology, Springer Verlag, Heidelberg. Specimens were viewed on a Phillips 300 transmission electron microscope operating at 60 kV.
Because it was not possible to investigate alterations of the actual parasite tissue on the germinal layer using histology, transmission electron microscopy was performed on sections obtained from the same tissue blocks. For evaluating the ultrastructural changes occurring during drug treatments, it is important to note that the process of tissue damage was not uniform, as it progressed at different rates in different metacestode vesicles. However, within a single metacestode, damage was rather homogenous. Therefore, a large number of different metacestodes, and as a consequence, different areas of a tissue block, were investigated in order to show a complete picture of the tissue alterations induced by ABZ, NTZ, and NTZ/ABZ-treatments.

Data set [7] can be described thus: Single-dose pharmacokinetic study, serum levels of TIZ, TIZ-gluc and ABZSO (Example 4). It is filed as in vivo. The conditions noted are these: non-infected Balb/c mice; single dose 1 mg ABZ or 3 mg/1 mg NTZ/ABZ. On the procedure: A total of 120 6-week old non-infected Balb/c mice were divided into three treatment groups: group 1 (NTZ—30 mice), group 2 (ABZ—30 mice), group 3 (NTZ/ABZ—60 mice). They received a single dose of 3 mg NTZ (group 1), 1 mg ABZ (group 2) and 3 mg/1 mg of NTZ/ABZ (group 3) in a volume of 100 μl suspended in 0.5% CMC. At defined time points following inoculation, (0, 1, 2, 4, 6, 8, 12, 24 and 48 h), blood samples were obtained from three mice/group, and blood levels of tizoxanide (TIZ), tizoxanide-glucuronide (TIZ-gluc) and ABZSO were assayed.
TIZ and Tiz-gluc were extracted from mouse serum samples using protein precipitation with acetonitrile. The supernatant was evaporated and reconstituted in injection solvent before injection. Chromatographic separation was achieved on a C18 column (5 pm 70×2 mm). Detection was by a mass spectrometer with an ion spray ionization source. Negative ions were detected in multiple reaction monitoring mode (Q1=264 m/z and Q3=216.9 m/z for TIZ, and Q1=439.9 m/z and Q3=263.9 m/z for TIZ-gluc). The lower limits of quantitation were 0.05 μg/ml and 0.2 μg/ml for TIZ and TIZ-gluc, respectively. […]

For data set [8] the following is noted: mice and humans, literature; cited from earlier work.

As for `CC(=O)Oc1ccccc1C(=O)Nc1ncc([N+](=O)[O-])s1` [NTZ, 2-(acetolyloxy)-N-(5-nitro-2-thiazolyl)benzamide], the “Reduction in parasite weight (in words)” value in data set [1] was “not statistically significant”. Moreover, in data set [2], the “Number of liver lesions (means)” value was 2.2 lesions/mouse. In addition, the Parasite weight in data set [3] was found to be 0.17 ± 0.05 g. The solubility in data set [4] (DMSO, organic solvent or mixture) was at least 2000 µg/mL. Also, the “Solubility in acetic acid” value in data set [4] (acetic acid) is listed as “poorly soluble”. In addition, the Solubility in acetone result in data set [4] (acetone) is listed as “fairly soluble”. In addition, the Solubility in chloroform result in data set [4] (chloroform) is “poorly soluble”. For the same compound, the Solubility in dioxane entry in data set [4] (dioxane) was “fairly soluble”. The Solubility in ethanol result in data set [4] (ethanol) is “poorly soluble”. The Solubility in ether result in data set [4] (ether) is on record as “very poorly soluble”. Further, the “Solubility in methyl benzene” value in data set [4] (methyl benzene) was “very poorly soluble”. Moreover, the Solubility in pyridine entry in data set [4] (pyridine) is listed as “easily soluble”. In addition, in data set [4] (water), the Solubility in water entry is reported as “very poorly soluble”. In data set [5], the Oral absorption entry is reported as “easily absorbed orally”. In data set [6], the “Ultrastructural alterations of metacestode tissue (TEM)” value was “rather heterogeneous morphological features” and the “Histology of metacestode tissue” value is on record as “limited destructive effect”.
Take `CCCSc1ccc2nc(NC(=O)OC)[nH]c2c1` [ABZ]: the “Reduction in parasite weight (in words)” value in data set [1] was “significant reduction in parasite weight”. Further, the “ABZSO serum concentration at 12 h” value in data set [7] is on record as “zero”. Further, the “Time after which ABZSO disappears following ABZ uptake” value in data set [8] is at most 10 h. The compound also returned a Parasite weight in data set [3] of 0.08 ± 0.01 g. Moreover, in data set [6], the “Ultrastructural alterations of metacestode tissue (TEM)” value is reported as “parasite tissue was mostly reduced to only the tegument” and the “Histology of metacestode tissue” value is “limited destructive effect”.
